Literature values in patent US20230270635A1, “METHODS AND COMPOSITIONS FOR COSMETIC APPLICATIONS” (GLO Pharma, Inc., priority 2021, published 2023).

Details: non-ionic surfactants with HLB of 10 or less, Table 1

Row | Molecule | HLB
1 | Sorbitan monolaurate | HLB = 8.6
2 | CCCCCCCC(=O)OCC(O)CO (stereo not shown) [Glyceryl caprylate] | HLB = 5-6
3 | Glyceryl stearate SE | HLB = 5.8
4 | Sorbitan Isostearate | HLB = 4.7
5 | Sorbitan monooleate | HLB = 4.3
6 | PEG-30 dipolyhydroxy-stearate | HLB = 5.5
7 | Sorbitan monopalmitate | HLB = 6.7
8 | Propylene glycol monolaurate | HLB=3
9 | Sorbitan monostearate | HLB = 4.7
10 | Sorbitan sesquioleate | HLB = 3.7
11 | Polyoxyethylene (4) dilaurate [PEG-4 dilaurate] | HLB = 6
12 | CCCCCCCCCCCCCCCCCC(=O)OCCOC(=O)CCCCCCCCCCCCCCCCC [Glycol distearate] | HLB = 1
13 | Polyoxyethylene (8) dilaurate [PEG-8 dilaurate] | HLB = 10
14 | Polyoxyethylene (3) Oleyl Ether [Oleth-3] | HLB = 6.6
15 | Sorbitan trioleate | HLB = 1.8
16 | CCCCCCCCCCCCCCCCCCOCCOCCO [Steareth-2, 2-(2-octadecoxyethoxy)ethanol] | HLB = 4.9
17 | CCCCCCCCCCCCCCCCOCCOCCO [Ceteth-2, Diethylene glycol hexadecyl ether] | HLB = 5.3
18 | Polyoxyethylene (5) Oleyl Ether [Oleth-5] | HLB = 9
19 | PEG-8 distearate | HLB = 8
20 | Polyoxyethylene (2) Oleyl Ether [Oleth-2] | HLB = 4.9
21 | CCCCCCCCCCCCCCCCCC(=O)OCCO [Glycol stearate] | HLB = 2.9
22 | PEG-8 dioleate | HLB = 7.2
23 | Polysorbate 61 | HLB = 9.6
24 | CCCCCCCCCCCC(=O)OCC(O)CO (stereo not shown) [Glyceryl laurate] | HLB = 5.2
25 | CCCCCCCCCCCCCCCCCC(=O)OCC(O)CO (stereo not shown) [Glyceryl stearate] | HLB = 3.8
